Assays:
[1] = biological target: T1, human insuline receptor (Ins-R) kinase domain (Homo sapiens, UniProt P06213); assay: InsR HTRF assay (assay 4); assay type: biochemical; conditions: IC50 assay 4/IC50 assay 2
T1 construct: GST-tagged recombinant kinase domain of the human insuline receptor; GST; purchased ProQinase, Freiburg, Germany; host or cells: SF-9 cells
Description: Inhibitory activity of compounds against the kinase activity of the insulin receptor was quantified employing the Ins-R HTRF assay as described in the following paragraphs.
GST-tagged recombinant kinase domain of the human insuline receptor (Ins-R, purchase from ProQinase, Freiburg, Germany) expressed in SF-9 cells was used as kinase. As substrate for the kinase reaction biotinylated poly-(Glu,Tyr) (Cis biointernational, France) was used.
Ins-R was incubated for 20 min at 22° C. in the presence of different concentrations of test compounds in 5 μl assay buffer [50 mM Hepes/NaOH pH 7, 15 mM MnCl2, 1 mM dithiothreitol, 0.1 μM sodium ortho-vanadate, 0.015% (v/v) PEG20000, 10 μM adenosine-tri-phosphate (ATP), 0.3 μg/ml substrate, 1% (v/v) dimethylsulfoxide]. The concentration of Ins-R was adjusted depending of the activity of the enzyme lot and was chosen appropriate to have the assay in the linear range, typical concentrations were in the range of 10 pg/μl. The reaction was stopped by the addition of 5 μl of a solution of HTRF detection reagents (0.1 μM streptavidine-XLent and 1 nM PT66-Eu-Chelate, an europium-chelate labelled anti-phosphotyrosine antibody from Perkin Elmer) in an aqueous EDTA-solution (80 mM EDTA, 0.2% (w/v) bovine serum albumin in 50 mM HEPES/NaOH pH 7.0).
The resulting mixture was incubated 1 h at 22° C. to allow the binding of the biotinylated phosphorylated peptide to the streptavidine-XLent and the PT66-Eu-Chelate. Subsequently the amount of phosphorylated substrate was evaluated by measurement of the resonance energy transfer from the PT66-Eu-Chelate to the streptavidine-XLent. Therefore, the fluorescence emissions at 620 nm and 665 nm after excitation at 350 nm was measured in a HTRF reader, e.g. a Rubystar (BMG Labtechnologies, Offenburg, Germany) or a Viewlux (Perkin-Elmer). The ratio of the emissions at 665 nm and at […] was taken as the measure for the amount of phosphorylated substrate. The data were normalised (enzyme reaction without inhibitor=0% inhibition, all other assay components but no enzyme=100% inhibition) and IC50 values were calculated by a 4 parameter fit using an inhouse software.

[2] = biological target: Tie2 (Homo sapiens, UniProt Q02763); assay: Tie2 ELISA assay (assay 1): cellular Tie2 autophosphorylation in Tie2-transfected CHO cells stimulated by angiopoietin-2; assay type: cell-based; design: expressed in transfected cells; host or cells: CHO (DHFR-deficient), stably transfected: CHO Tie2/DHFR; conditions: CHO Tie2/DHFR cells, Ang2 stimulated, Tie2 autophosphorylation sandwich-ELISA; pIC50 = -log IC50 molar; read-out: Tie 2 activity (assay 1)
Sequence of Tie2 (Q02763 23-1124): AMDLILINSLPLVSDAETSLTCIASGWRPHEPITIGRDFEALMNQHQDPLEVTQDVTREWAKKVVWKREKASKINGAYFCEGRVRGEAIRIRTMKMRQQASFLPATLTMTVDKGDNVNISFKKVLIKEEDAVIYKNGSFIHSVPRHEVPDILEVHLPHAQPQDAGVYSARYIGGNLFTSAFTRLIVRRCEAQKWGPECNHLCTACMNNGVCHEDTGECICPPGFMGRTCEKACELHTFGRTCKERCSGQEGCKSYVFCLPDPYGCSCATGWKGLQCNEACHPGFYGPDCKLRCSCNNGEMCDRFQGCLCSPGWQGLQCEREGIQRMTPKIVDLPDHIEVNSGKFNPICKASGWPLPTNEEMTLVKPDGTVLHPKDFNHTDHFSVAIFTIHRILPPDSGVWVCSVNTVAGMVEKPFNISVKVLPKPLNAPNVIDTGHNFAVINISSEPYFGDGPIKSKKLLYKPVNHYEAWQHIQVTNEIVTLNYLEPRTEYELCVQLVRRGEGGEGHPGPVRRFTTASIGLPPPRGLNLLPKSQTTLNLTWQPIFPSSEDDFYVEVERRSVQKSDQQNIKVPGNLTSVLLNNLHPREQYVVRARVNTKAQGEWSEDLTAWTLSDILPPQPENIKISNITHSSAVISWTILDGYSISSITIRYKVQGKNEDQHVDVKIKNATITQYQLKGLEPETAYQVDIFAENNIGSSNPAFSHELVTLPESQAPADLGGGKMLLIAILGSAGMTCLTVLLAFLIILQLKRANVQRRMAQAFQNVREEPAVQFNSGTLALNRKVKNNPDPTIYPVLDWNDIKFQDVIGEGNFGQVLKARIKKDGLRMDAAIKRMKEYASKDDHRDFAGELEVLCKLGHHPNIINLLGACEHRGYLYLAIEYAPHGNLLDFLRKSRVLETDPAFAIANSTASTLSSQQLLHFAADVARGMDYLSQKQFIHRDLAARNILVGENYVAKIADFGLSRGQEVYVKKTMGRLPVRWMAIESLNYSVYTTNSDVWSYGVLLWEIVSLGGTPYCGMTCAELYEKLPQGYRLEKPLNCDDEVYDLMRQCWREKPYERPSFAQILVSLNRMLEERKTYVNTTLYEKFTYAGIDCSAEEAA
Description: Cellular activity of compounds of the present invention as inhibitors of Tie2 kinase activity was measured employing a Tie2 ELISA assay as described in the following paragraphs. Herein CHO cell-cultures, which are stably transfected by known techniques with Tie2 using DHFR deficiency as selection marker, are stimulated by angiopoietin-2. The specific autophosphorylation of Tie2 receptors is quantified with a sandwich-ELISA using anti-Tie2 antibodies for catch and anti-phosphotyrosine antibodies coupled to HRP for detection.
• 96 well tissue culture plate, sterile, Greiner • 96 well FluoroNunc plate MaxiSorp Surface C, Nunc • 96 well plate polypropylene for compound dilution in DMSO • CHO Tie2/DHFR (transfected cells) • PBS−; PBS++, DMSO • MEM alpha Medium with Glutamax-I without Ribonucleosides and • Deoxyribonucleosides (Gibco #32561-029) • with 10% FCS after dialysis! and 1% PenStrep • Lysis buffer: 1 Tablet “Complete” protease inhibitor • 1 cap Vanadate (1 mL>40 mg/mL; working solution 2 mM) • ad 50 mL with Duschl-Puffer • pH 7.6 • Anti-Tie2-antibody 1:425 in Coating Buffer pH 9.6 • Stock solution: 1.275 mg/mL>working: 3 μg/mL • PBST: 2 bottles PBS(10×)+10 ml Tween, fill up with VE-water • RotiBlock 1:10 in VE-water • Anti-Phosphotyrosine HRP-Conjugated 1:10000 in 3% TopBlock • 3% TopBlock in PBST • BM Chemiluminescence ELISA Substrate (POD) • solution B1:100 solution A • SF9 cell culture medium • Ang2-Fc in SF9 cell culture medium Cell Experiment: • Dispense 5×10^4 cells/well/98 μL in 96 well tissue culture plate • Incubate at 37° C./5% CO2 • After 24 h add compounds according to desired concentrations • Add also to control and stimulated values without compounds 2 μL DMSO • And mix for a few min at room temperature • Add 100 μL Ang2-Fc to all wells except control, which receives insect medium • Incubate 20 min at 37° C. • Wash 3× with PBS++ • Add 100 μl Lysis buffer/well and shake a couple of min at room temperature • Store lysates at 20° C. before utilizing for the ELISA Performance of Sandwich-ELISA • Coat 96 well FluoroNunc Plate MaxiSorp Surface C with anti-Tie2 mAb • 1:425 in Coating buffer pH 9.6; 100 μL/well overnight at 4° C. • Wash 2× with PBST • Block plates with 250 μL/well RotiBlock 1:10 in VE-water • Incubate for 2 h at room temperature or overnight at 4° C. shaking • Wash 2× in PBST • Add thawed lysates to wells and incubate overnight shaking at 4° C. • Wash 2× with PBST • Add 100 μL/well anti-Phosphotyrosine HRP-Conjugated 1:10000 in 3% • TopBlock (3% TopBlock in PBST) and incubate overnight under shaking • Wash 6× with PBST • Add 100 μL/well BM Chemiluminescence ELISA Substrate (POD) • solutions 1 und 2 (1:100) • Determine luminescence with the LumiCount. Assay 2: Tie-2-Kinase HTRF-Assay without Kinase Preactivation

T1 sequence (P06213 1023-1298 limits assumed): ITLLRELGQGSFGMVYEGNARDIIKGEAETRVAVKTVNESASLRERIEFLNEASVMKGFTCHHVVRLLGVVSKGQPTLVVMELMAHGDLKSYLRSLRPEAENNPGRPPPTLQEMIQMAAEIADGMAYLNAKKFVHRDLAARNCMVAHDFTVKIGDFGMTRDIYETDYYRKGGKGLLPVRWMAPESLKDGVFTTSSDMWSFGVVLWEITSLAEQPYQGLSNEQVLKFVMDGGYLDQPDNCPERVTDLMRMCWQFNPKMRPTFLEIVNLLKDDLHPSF

| Compound | Selectivity vs. InsR [1] | IC50 [2] |
| --- | --- | --- |
| CN1CCC(Oc2ccc(NC(=O)Nc3ccc(-c4ccnc5c4cnn5C)cc3)cc2C(F)(F)F)CC1 [1.23, 1-[4-(1-Methyl-piperidin-4-yloxy)-3-trifluoromethyl-phenyl]-3-[4-(1-methyl-1H-pyrazolo[3,4-b]pyridin-4-yl)-phenyl]-urea] | >20 fold | < 501 nM |
| Cn1ncc2c(-c3ccc(NC(=O)Nc4cccc(C(F)(F)F)c4)cc3)cc(C3CCCCC3)nc21 [1.38, 1-[4-(6-Cyclohexyl-1-methyl-1H-pyrazolo[3,4-b]pyridin-4-yl)-phenyl]-3-(3-trifluoromethyl-phenyl)-urea] | >20 fold | < 501 nM |
| Cc1cc(-c2ccc(NC(=O)Nc3cc(F)cc(C(F)(F)F)c3)cc2)c2cnn(C)c2n1 [2.4, 1-[4-(1,6-Dimethyl-1H-pyrazolo[3,4-b]pyridin-4-yl)-phenyl]-3-(3-fluoro-5-trifluoromethyl-phenyl)-urea] | >20 fold | < 501 nM |
| Cc1ccc(F)c(NC(=O)Nc2ccc(-c3ccnc4[nH]ncc34)cc2)c1 [1.22, 1-(2-Fluoro-5-methyl-phenyl)-3-[4-(1H-pyrazolo[3,4-b]pyridin-4-yl)-phenyl]-urea] | >20 fold | < 501 nM |
| CC(C)c1cc(-c2ccc(NC(=O)Nc3cccc(C(F)(F)F)c3)cc2)c2cn[nH]c2n1 [1.2, 1-[4-(6-Isopropyl-1H-pyrazolo[3,4-b]pyridin-4-yl)-phenyl]-3-(3-trifluoromethyl-phenyl)-urea] | >20 fold | < 501 nM |
| CN1CCN(Cc2ccc(NC(=O)Nc3ccc(-c4cc(C(C)(C)C)nc5[nH]ncc45)cc3)cc2C(F)(F)F)CC1 [1.15, 1-[4-(6-tert-Butyl-1H-pyrazolo[3,4-b]pyridin-4-yl)-phenyl]-3-[4-(4-methyl-piperazin-1-ylmethyl)-3-trifluoromethyl-phenyl]-urea] | >20 fold | < 501 nM |
| Cn1ncc2c(-c3ccc(NC(=O)Nc4cccc(C(F)(F)F)c4)cc3)cc(C3CCC3)nc21 [1.37, 1-[4-(6-Cyclobutyl-1-methyl-1H-pyrazolo[3,4-b]pyridin-4-yl)-phenyl]-3-(3-trifluoromethyl-phenyl)-urea] | >20 fold | < 501 nM |
| Cc1cc(-c2ccc(NC(=O)Nc3cccc(C(F)(F)F)c3)cc2)c2cn[nH]c2n1 [1.18, 1-[4-(6-Methyl-1H-pyrazolo[3,4-b]pyridin-4-yl)-phenyl]-3-(3-trifluoromethyl-phenyl)-urea] | >20 fold | < 501 nM |
| Cc1ccc(F)c(NC(=O)Nc2ccc(-c3cc(C4(C(=O)N(C)C)CC4)nc4c3cnn4C)cc2)c1 [1.29, 1-(4-{4-[3-(2-Fluoro-5-methyl-phenyl)-ureido]-phenyl}-1-methyl-1H-pyrazolo[3,4-b]pyridin-6-yl)-cyclopropane-carboxylic acid dimethylamide] | >20 fold | < 501 nM |
| CCc1cccc(NC(=O)Nc2ccc(-c3cc(CN4CCOCC4)nc4c3cnn4C)cc2)c1 [3.4, 1-(3-Ethyl-phenyl)-3-[4-(1-methyl-6-morpholin-4-ylmethyl-1H-pyrazolo[3,4-b]pyridin-4-yl)-phenyl]-urea] | >20 fold | < 501 nM |
| Cc1ccc(F)c(NC(=O)Nc2ccc(-c3cc(CN4CCOCC4)nc4c3cnn4C)cc2)c1 [3.5, 1-(2-Fluoro-5-methyl-phenyl)-3-[4-(1-methyl-6-morpholin-4-ylmethyl-1H-pyrazolo[3,4-b]pyridin-4-yl)-phenyl]-urea] | >20 fold | < 501 nM |
| Cn1ncc2c(-c3ccc(NC(=O)Nc4cccc(C(F)(F)F)c4)cc3)cc(CN3CCOCC3)nc21 [3.2, 1-[4-(1-Methyl-6-morpholin-4-ylmethyl-1H-pyrazolo[3,4-b]pyridin-4-yl)-phenyl]-3-(3-trifluoromethyl-phenyl)-urea] | >20 fold | < 501 nM |
| CN(C)C(=O)C1(c2cc(-c3ccc(NC(=O)Nc4cccc(C(F)(F)F)c4)cc3)c3cnn(C)c3n2)CC1 [1.26, 1-(1-Methyl-4-{4-[3-(3-trifluoromethyl-phenyl)-ureido]-phenyl}-1H-pyrazolo[3,4-b]pyridin-6-yl)-cyclopropane-carboxylic acid dimethylamide] | >20 fold | < 501 nM |
| Cc1cc(-c2ccc(NC(=O)Nc3ccc(F)c(C(F)(F)F)c3)cc2)c2cnn(C)c2n1 [2.5, 1-[4-(1,6-Dimethyl-1H-pyrazolo[3,4-b]pyridin-4-yl)-phenyl]-3-(4-fluoro-3-trifluoromethyl-phenyl)-urea] | >20 fold | 501 to 1000 nM |
| Cn1ncc2c(-c3ccc(NC(=O)Nc4cc(C(F)(F)F)ccc4F)cc3)ccnc21 [1.8, 1-(2-Fluoro-5-trifluoromethyl-phenyl)-3-[4-(1-methyl-1H-pyrazolo[3,4-b]-pyridin-4-yl)-phenyl]-urea] | >20 fold | < 501 nM |
| CC(C)c1cc(-c2ccc(NC(=O)Nc3cccc(C(F)(F)F)c3)cc2)c2cnn(C)c2n1 [1.3, 1-[4-(6-Isopropyl-1-methyl-1H-pyrazolo[3,4-b]pyridin-4-yl)-phenyl]-3-(3-trifluoromethyl-phenyl)-urea] | >20 fold | < 501 nM |
| Cn1ncc2c(-c3ccc(NC(=O)Nc4cccc(C(F)(F)F)c4)cc3)ccnc21 [1.4, 1-[4-(1-Methyl-1H-pyrazolo[3,4-b]pyridin-4-yl)-phenyl]-3-(3-trifluoromethyl-phenyl)-urea] | >20 fold | < 501 nM |
| CN1CCN(Cc2ccc(NC(=O)Nc3ccc(-c4ccnc5c4cnn5C)cc3)cc2C(F)(F)F)CC1 [1.24, 1-[4-(4-Methyl-piperazin-1-ylmethyl)-3-trifluoromethyl-phenyl]-3-[4-(1-methyl-1H-pyrazolo[3,4-b]pyridin-4-yl)-phenyl]-urea] | >20 fold | < 501 nM |
| COc1ccc(C(F)(F)F)cc1NC(=O)Nc1ccc(-c2cc(C)nc3c2cnn3C)cc1 [2.7, 1-[4-(1,6-Dimethyl-1H-pyrazolo[3,4-b]pyridin-4-yl)-phenyl]-3-(2-methoxy-5-trifluoromethyl-phenyl)-urea] | >20 fold | < 501 nM |
